Test results from patent US11267852B2, “Cell lines for screening odorant and aroma receptors” (Firmenich SA, priority 2015, dated 2022).
Blank lines part the entries; values can stand above or below the molecule they belong to.

Legend:
OR1A1 = biological target: T1, OR1A1 (Homo sapiens, UniProt Q9P1Q5); test: cell-based odorant assay, cAMP increase (HTRF), OR1A1; details: modified RTP1 HEK293T cell line compared to unmodified control cell line
T1 construct: expressed in transfected cells
T1 sequence (Q9P1Q5 1-309): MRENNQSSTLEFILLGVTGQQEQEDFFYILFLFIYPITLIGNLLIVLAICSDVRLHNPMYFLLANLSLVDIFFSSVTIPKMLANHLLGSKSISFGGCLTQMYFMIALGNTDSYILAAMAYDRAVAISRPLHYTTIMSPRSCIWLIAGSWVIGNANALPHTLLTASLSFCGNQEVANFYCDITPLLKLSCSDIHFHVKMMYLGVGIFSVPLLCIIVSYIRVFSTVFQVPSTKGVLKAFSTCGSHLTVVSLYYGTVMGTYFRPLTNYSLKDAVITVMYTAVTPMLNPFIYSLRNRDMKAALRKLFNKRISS

Olfr741 = test: cell-based odorant assay, cAMP increase (HTRF), Olfr741; set-up: species or system mouse
Method: (§1) Functional dose-response experiments were performed in order to evaluate the level of functional enhancement of activity of odorant receptors in the modified cell line. Odorant receptors were modified at their N-terminus with short polypeptide sequences or tags [e.g. Flag (SEQ ID NO: 15), Rho (SEQ ID NO: 17; 20 first amino acids of the bovine rhodopsin receptor), or Lucy (SEQ ID NO: 19)], transiently expressed in WT or modified HEK293T cells, and stimulated with odorant compounds to determine the activity of the receptors. FIGS. 7 and 8) Using a cell-based odorant binding assay, the activity of Olfr741 (SEQ ID NO: 4) and Olfr742 (SEQ ID NO: 6) to indole was tested in the engineered RTP1 cell line and compared to HEK293T lacking RTP1 protein expression. Odorant receptors were transfected into both cell lines and exposed to increasing concentrations of indole. Odorant-induced activity was detected by measuring the level of cAMP increase in the cytosol using an HTRF based kit (CisBio, cAMP dynamic 2 kit, cat #62AM4PEJ). FIGS. 9 and 10) Using the same cell-based odorant binding assay, the activity of Olfr96 (SEQ ID NO: 8) and OR11A1 (SEQ ID NO: 10) to vulcanolide was tested in the engineered RTP1 expressing cell line and compared to HEK293T lacking RTP1 protein expression. The activity of Olfr740 (SEQ ID NO: 12) to indole was also tested in both cellular backgrounds. […]

Olfr740 = test: cell-based odorant assay, cAMP increase (HTRF), Olfr740; set-up: species or system mouse
Method: as §1

Olfr742 = test: cell-based odorant assay, cAMP increase (HTRF), Olfr742; set-up: species or system mouse
Method: as §1

Olfr96 = test: cell-based odorant assay, cAMP increase (HTRF), Olfr96; set-up: species or system mouse
Method: as §1

OR11A1 = biological target: T2, OR11A1 (Homo sapiens, UniProt Q9GZK7); test: cell-based odorant assay, cAMP increase (HTRF), OR11A1
T2 construct: expressed in transfected cells
T2 sequence (Q9GZK7 1-315): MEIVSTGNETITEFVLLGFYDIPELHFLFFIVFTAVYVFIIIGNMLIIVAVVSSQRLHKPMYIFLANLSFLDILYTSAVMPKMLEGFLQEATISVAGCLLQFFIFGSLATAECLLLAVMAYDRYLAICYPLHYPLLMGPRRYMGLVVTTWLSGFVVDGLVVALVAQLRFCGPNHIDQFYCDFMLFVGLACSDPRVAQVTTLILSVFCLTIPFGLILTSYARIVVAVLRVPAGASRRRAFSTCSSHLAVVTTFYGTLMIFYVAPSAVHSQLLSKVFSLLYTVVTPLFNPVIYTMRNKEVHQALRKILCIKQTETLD
Method: as §1

[1] = modified RTP1 HEK293T cell line, increasing concentrations
[2] = unmodified control HEK293T lacking RTP1 expression

SMILES: C=C(C)C1CC=C(C)C(=O)C1 (stereo not drawn) [carvone-(−)]
receptor activity (cAMP increase), dose-response (OR1A1): more potent dose-dependent increase of receptor activity

SMILES: c1ccc2[nH]ccc2c1 [indole]
receptor activity (cAMP increase), dose-response (Olfr741; [1]): dose-dependent increase of receptor activity
receptor activity (cAMP increase), dose-response (Olfr741; [2]): not in the unmodified control cell line
receptor activity (cAMP increase), dose-response (Olfr740; [1]): dose-dependent increase of receptor activity
receptor activity (cAMP increase), dose-response (Olfr740; [2]): not in the unmodified control cell line
receptor activity (cAMP increase), dose-response (Olfr742; [1]): dose-dependent increase of receptor activity
receptor activity (cAMP increase), dose-response (Olfr742; [2]): not in the unmodified control cell line

receptor activity (cAMP increase), dose-response (OR11A1; [2]): not in the unmodified control cell line
SMILES: Cc1cc2c(cc1C=O)C(C)(C)[C@@H](C)[C@H](C)C2(C)C [vulcanolide]
receptor activity (cAMP increase), dose-response (Olfr96; [1]): dose-dependent increase of receptor activity
receptor activity (cAMP increase), dose-response (Olfr96; [2]): not in the unmodified control cell line
receptor activity (cAMP increase), dose-response (OR11A1; [1]): dose-dependent increase of receptor activity
